Reference: patent US6673793B2, “Oxazinoquinolones useful for the treatment of viral infections” (Pharmacia & Upjohn Co., priority 2000, dated 2004)

Columns and labels:
CMV polymerase = biological target: T1, CMV polymerase (Human cytomegalovirus, UniProt P08546); test: HCMV polymerase assay, scintillation proximity assay (SPA), modified version; format: biochemical; conditions: modified HCMV polymerase SPA assay: compounds diluted in 100% DMSO, 4.5 mM DTT in polymerase buffer, different lot of CMV polymerase; read-out: CMV polymerase IC50
T1 construct: made in house; host or cells: recombinant baculovirus-infected SF-9 cells
Summary of the method: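 Baculovirus/SF-9-expressed HCMV polymerase in SPA with 90 nM ^3H-dTTP and 6 nM biotinylated poly(dA)-oligo(dT), pH 7.5 HEPES/KCl/MgCl2/BSA, with or without 2 mM CHAPS. Runs 30 min at 25 C. or 37 C., EDTA stop, streptavidin-SPA beads counted; IC50 by linear regression. Modified version: compounds diluted in 100% DMSO rather than 50%, plus 4.5 mM DTT.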

T1 sequence (P08546 whole entry): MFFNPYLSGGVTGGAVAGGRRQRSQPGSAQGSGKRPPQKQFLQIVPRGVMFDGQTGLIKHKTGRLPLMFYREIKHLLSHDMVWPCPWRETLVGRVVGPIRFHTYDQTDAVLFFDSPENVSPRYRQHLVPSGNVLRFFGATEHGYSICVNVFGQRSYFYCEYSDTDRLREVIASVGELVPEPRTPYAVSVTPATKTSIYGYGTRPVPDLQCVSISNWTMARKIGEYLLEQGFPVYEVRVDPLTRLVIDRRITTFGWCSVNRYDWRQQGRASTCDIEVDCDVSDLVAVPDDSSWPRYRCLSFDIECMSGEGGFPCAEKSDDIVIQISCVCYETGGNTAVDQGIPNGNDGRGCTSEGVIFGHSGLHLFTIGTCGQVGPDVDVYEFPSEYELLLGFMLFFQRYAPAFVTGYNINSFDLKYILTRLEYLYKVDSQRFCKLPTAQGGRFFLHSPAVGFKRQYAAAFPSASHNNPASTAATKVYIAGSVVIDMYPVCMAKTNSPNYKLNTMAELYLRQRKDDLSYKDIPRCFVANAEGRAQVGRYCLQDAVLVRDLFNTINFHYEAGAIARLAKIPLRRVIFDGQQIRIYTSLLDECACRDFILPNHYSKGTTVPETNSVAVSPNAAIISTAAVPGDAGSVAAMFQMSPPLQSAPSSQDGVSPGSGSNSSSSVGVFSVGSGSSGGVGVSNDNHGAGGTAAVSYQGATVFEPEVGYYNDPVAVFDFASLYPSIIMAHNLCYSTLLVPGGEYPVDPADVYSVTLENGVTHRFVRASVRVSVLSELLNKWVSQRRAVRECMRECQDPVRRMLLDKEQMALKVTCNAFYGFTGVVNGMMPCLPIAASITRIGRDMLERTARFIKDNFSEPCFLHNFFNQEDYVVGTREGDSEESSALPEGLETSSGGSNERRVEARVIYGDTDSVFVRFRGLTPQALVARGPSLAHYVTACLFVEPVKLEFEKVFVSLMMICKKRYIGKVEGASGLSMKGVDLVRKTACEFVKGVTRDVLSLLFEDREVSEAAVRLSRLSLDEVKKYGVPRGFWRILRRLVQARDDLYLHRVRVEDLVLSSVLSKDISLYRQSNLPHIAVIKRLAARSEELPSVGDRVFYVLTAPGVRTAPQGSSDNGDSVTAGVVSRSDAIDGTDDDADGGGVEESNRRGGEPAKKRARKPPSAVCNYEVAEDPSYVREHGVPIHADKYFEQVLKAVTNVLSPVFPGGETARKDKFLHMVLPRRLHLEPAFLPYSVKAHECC

IC50 (CMV polymerase) [µM]	melting point	Compound
0.59	202.5 to 204.5 °C	COCOCc1ccccc1C1Cn2cc(C(=O)NCc3ccc(Cl)cc3)c(=O)c3cc(CN4CCOCC4)cc(c32)O1 (stereo not drawn) [Example 66, N-(4-Chlorobenzyl)-2-{2-[(methoxymethoxy)methyl]phenyl}-9-(morpholin-4-ylmethyl)-7-oxo-2,3-dihydro-7H-[1,4]oxazino[2,3,4-ij]quinoline-6-carboxamide]
1.69	236 to 239 °C	COCOCc1ccc(C2Cn3cc(C(=O)NCc4ccc(Cl)cc4)c(=O)c4cc(CN5CCOCC5)cc(c43)O2)cc1 (stereo not drawn) [Example 67, N-(4-Chlorobenzyl)-2-{4-[(methoxymethoxy)methyl]phenyl}-9-(morpholin-4-ylmethyl)-7-oxo-2,3-dihydro-7H-[1,4]oxazino[2,3,4-ij]quinoline-6-carboxamide]
0.33	218 to 223 °C (dec.)	O=C(NCc1ccc(Cl)cc1)c1cn2c3c(cc(CN4CCOCC4)cc3c1=O)OC(c1ccccc1CO)C2 (stereo not drawn) [Example 69, N-(4-Chlorobenzyl)-2-[2-(hydroxymethyl)phenyl]-9-(morpholin-4-ylmethyl)-7-oxo-2,3-dihydro-7H-[1,4]oxazino[2,3,4-ij]quinoline-6-carboxamide]
